Literature values, collected in patent US9433622B2, “Pyrimidine compounds useful in the treatment of diseases mediated by IKKE and/or TBK1 mechanisms” (DOMAINEX LIMITED, priority 2013, dated 2016).

Details: mice models of obesity; cited from earlier work

## CC(C)c1ccc2oc3nc(N)c(C(=O)O)cc3c(=O)c2c1 [Amlexanox]
  blood glucose levels: lower blood glucose levels
  weight gain: reduce weight gain
